Columns and labels:
[1] = log P determination by HPLC on reversed-phase column (C18), EEC Directive 79/831 Annex V.A8; type: physicochemical; details: method a): Agilent 1100 LC, Zorbax Eclipse Plus C18, acetonitrile/water with formic acid, gradient 10-95% in 4.25 min, 55° C.
Protocol: Agilent 1100 LC system; 50*4.6 Zorbax Eclipse Plus C18 1.8 micron; mobile phase A: acetonitrile (0.1% formic acid); mobile phase B: water (0.09% formic acid); linear gradient from 10% acetonitrile to 95% acetonitrile in 4.25 min, then 95% acetonitrile for a further 1.25 min; oven temperature 55° C.; flow rate: 2.0 ml/min. Mass detection is carried out via an Agilend MSD system.
^a)Unless indicated otherwise, the following method was used to determine the log P values and masses: The determination of the given log P values was carried out in accordance with EEC Directive 79/831 Annex V.A8 by HPLC (High Performance Liquid Chromatography) on a reversed-phase column (C18). Agilent 1100 LC system; 50*4.6 Zorbax Eclipse Plus C18 1.8 micron; mobile phase A: acetonitrile (0.1% formic acid); mobile phase B: water (0.09% formic acid); linear gradient from 10% acetonitrile to 95% acetonitrile in 4.25 min, then 95% acetonitrile for a further 1.25 min; oven temperature 55° C.; flow rate: 2.0 ml/min. Mass detection is carried out via an Agilend MSD system. ^b)Note for the alternative method for determining log P values and masses: The stated log P values were determined in accordance with EEC Directive 79/831 Annex V.A8 by HPLC (High Performance Liquid Chromatography) using a reversed-phase column (C18). Waters ACQUITY UPLC-MS system; 2.1*50 mm Zorbax Eclipse Plus C18 1.8 μm 600 bar; injection volume: 0.5 ul about 1000 ppm; mobile phase A: acetonitrile (0.1% formic acid); mobile phase B: water (0.085% formic acid); linear gradient from 10% acetonitrile to 95% acetonitrile in 1.5 min, then 95% acetonitrile for a further 0.5 min; oven temperature 60° C.; flow rate: 1.0 ml/min. Mass detection is carried out via a Waters SQD system.

[2] = tested on: larvae of the mustard beetle (Phaedon cochleariae); assay: Phaedon cochleariae spray test (PHAECO); type: in vivo; details: Chinese cabbage leaf discs, after 7 days
Protocol: Phaedon cochleariae—Spray Test (PHAECO)
(§1) Solvents: 78.0 parts by weight of acetone
(§2) • 1.5 parts by weight of dimethylformamide Emulsifier: alkylaryl polyglycol ether
(§3) To produce a suitable preparation of active compound, 1 part by weight of active compound is dissolved using the stated parts by weight of solvent and made up with water comprising an emulsifier concentration of 1000 ppm until the desired concentration is reached. To produce further test concentrations, the preparation is diluted with emulsifier-containing water.
After 7 days, the efficacy in % is determined. 100% means that all of the beetle larvae have been killed; 0% means that none of the beetle larvae have been killed.

[3] = tested on: adult cat fleas (Ctenocephalides felis); assay: Ctenocephalides felis oral test (CTECFE); type: in vivo; details: application rate 100 ppm in citrated cattle blood; after 2 days
Protocol: Ctenocephalides felis-Oral Test ([…]) Solvent: dimethyl sulphoxide To produce a suitable preparation of active compound, 10 mg of active compound are mixed with 0.5 ml of dimethyl sulphoxide. Dilution with citrated cattle blood gives the desired concentration. About 20 unfed adult cat fleas (Ctenocephalides felis) are placed into a chamber which is closed at the top and bottom with gauze. A metal cylinder whose bottom end is closed with a parafilm is placed onto the chamber. The cylinder contains the blood/active ingredient preparation, which can be imbibed by the fleas through the parafilm membrane. After 2 days, the kill in % is determined. 100% means that all of the fleas have been killed; 0% means that none of the fleas have been killed.

[4] = tested on: caterpillars of the armyworm (Spodoptera frugiperda); assay: Spodoptera frugiperda spray test (SPODFR); type: in vivo; details: maize leaf discs, after 7 days
Protocol: Spodoptera frugiperda—Spray Test (SPODFR)
as §1, §2, §3
Leaf discs of maize (Zea mays) are sprayed with an active compound preparation of the desired concentration and, after drying, populated with caterpillars of the armyworm (Spodoptera frugiperda).
After 7 days, the efficacy in % is determined. 100% means that all of the caterpillars have been killed; 0% means that none of the caterpillars have been killed.

[5] = tested on: engorged adult female cattle ticks (Boophilus microplus); assay: Boophilus microplus injection test (BOOPMI Inj); type: in vivo; details: application rate 20 μg/animal; injection into abdomen; assessed after 7 days
Protocol: Boophilus microplus Injection Test (BOOPMI Inj)
Solvent: dimethyl sulphoxide
To produce a suitable preparation of active compound, 10 mg of active compound are mixed with 0.5 ml of solvent, and the concentrate is diluted with solvent to the desired concentration.
1 μl of the active compound solution is injected into the abdomen of 5 engorged adult female cattle ticks (Boophilus microplus). The animals are transferred into dishes and kept in a climate-controlled room.
The activity is assessed after 7 days by laying of fertile eggs. Eggs whose fertility is not visible from the outside are stored in a climate-controlled cabinet until the larvae hatch after about 42 days. An efficacy of 100% means that none of the ticks has laid any fertile eggs; 0% means that all eggs are fertile.

[6] = tested on: greenhouse red spider mite (Tetranychus urticae), OP-resistant; assay: Tetranychus urticae spray test, OP-resistant (TETRUR); type: in vivo; details: bean leaf discs, after 6 days
Protocol: Tetranychus urticae—Spray Test, OP-Resistant (TETRUR)
as §1, §2, §3
Discs of bean leaves (Phaseolus vulgaris) which are infested by all stages of the greenhouse red spider mite (Tetranychus urticae) are sprayed with an active compound preparation of the desired concentration.
After 6 days, the efficacy in % is determined. 100% means that all of the spider mites have been killed; 0% means that none of the spider mites have been killed.

[7] = tested on: L1 larvae of the Australian sheep blowfly (Lucilia cuprina); assay: Lucilia cuprina test (LUCICU); type: in vivo; details: application rate 100 ppm; minced horsemeat; after 2 days
Protocol: Lucilia cuprina Test (LUCICU) Solvent: dimethyl sulphoxide To produce a suitable preparation of active compound, 10 mg of active compound are mixed with 0.5 ml of dimethyl sulphoxide, and the concentrate is diluted with water to the desired concentration. About 20 L1 larvae of the Australian sheep blowfly (Lucilia cuprina) are transferred into a test vessel containing minced horsemeat and the active compound preparation of the desired concentration. After 2 days, the kill in % is determined. 100% means that all of the larvae have been killed; 0% means that none of the larvae have been killed.

[8] = tested on: adult houseflies (Musca domestica); assay: Musca domestica test (MUSCDO); type: in vivo; details: application rate 100 ppm; after 2 days
Protocol: Musca domestica Test (MUSCDO) Solvents: dimethyl sulphoxide To produce a suitable preparation of active compound, 10 mg of active compound are mixed with 0.5 ml of dimethyl sulphoxide, and the concentrate is diluted with water to the desired concentration. Vessels containing a sponge treated with sugar solution and the active compound preparation of the desired concentration are populated with 10 adult houseflies (Musca domestica). After 2 days, the kill in % is determined. 100% means that all of the flies have been killed; 0% means that none of the flies have been killed.

Row | SMILES | efficacy in % ([2]; application rate 100 g/ha) [%] | kill in % [3] [%] | efficacy (no laying of fertile eggs) [5] [%] | kill in % [7] [%] | efficacy in % ([6]; application rate 100 g/ha) [%] | also measured
1 | Cn1nc(C(F)(F)C(F)(F)F)c(C(F)(F)F)c1-n1cc(-c2ccc(F)c(C#N)c2)cn1 [2-fluoro-5-[2′-methyl-5′-(pentafluoroethyl)-4′-(trifluoromethyl)-2′H-1,3′-bipyrazol-4-yl]benzonitrile] | – | – | – | – | – | chromatographic logP [1]: 4.37
2 | Cn1nc(C(F)(F)C(F)(F)F)c(C(F)(F)F)c1-n1cnc(-c2cccc(CNC(=O)OC(C)(C)C)c2)c1 [Ib-1, tert-butyl (3-{1-[1-methyl-3-(pentafluoroethyl)-4-(trifluoromethyl)-1H-pyrazol-5-yl]-1H-imidazol-4-yl}benzyl)carbamate] | – | – | – | – | – | chromatographic logP [1]: 4.21
3 | CC(=O)NC(C)c1cccc(-c2cnn(-c3c(C(F)(F)F)c(C(F)(F)C(F)(F)F)nn3C)c2)c1 (stereo not drawn) [Ic-31] | 100 | – | – | – | – | –
4 | Cn1nc(C(F)(F)C(F)(F)F)c(C(F)(F)F)c1-n1cc(-c2ccc(F)c(CNC=O)c2)cn1 [Ic-19] | – | 100 | 100 | 100 | – | efficacy in % ([4]; application rate 500 g/ha): 83%; efficacy in % ([2]; application rate 500 g/ha): 100%; efficacy in % ([6]; application rate 500 g/ha): 90%
5 | Cn1nc(C(F)(F)C(F)(F)F)c(C(F)(F)F)c1-n1cc(-c2ccc(F)c(CNC(=O)c3cncnc3)c2)cn1 [Ic-27] | 83 | 90 | 100 | – | 100 | –
6 | Cn1nc(C(F)(F)C(F)(F)F)c(C(F)(F)F)c1-n1cc(-c2ccc(F)c(CNC(=O)C(F)(F)F)c2)cn1 [Ic-6] | 100 | 100 | 100 | 100 | 100 | kill in % [8]: 80%
7 | CCC(=O)NCc1cccc(-c2cn(-c3c(C(F)(F)F)c(C(F)(F)C(F)(F)F)nn3C)nn2)c1 [Ig-4] | 100 | 100 | 100 | 100 | 90 | kill in % [8]: 100%
8 | Cn1nc(C(F)(F)C(F)(F)F)c(C(F)(F)F)c1-n1cc(-c2cncc(CNC(=O)C3CC3)c2)cn1 [Ic-29] | 100 | – | – | – | 90 | –
9 | CSC(C)C(=O)NCc1cc(-c2cnn(-c3c(C(F)(F)F)c(C(F)(F)C(F)(F)F)nn3C)c2)ccc1F (stereo not drawn) [Ic-30] | – | 95 | 100 | 100 | 100 | –
10 | CC(C)C(=O)NCc1cc(-c2cnn(-c3c(C(F)(F)F)c(C(F)(F)C(F)(F)F)nn3C)c2)ccc1F [Ic-28] | 100 | 90 | 100 | 100 | – | efficacy in % ([4]; application rate 100 g/ha): 100%
11 | CCC(=O)NCc1cc(-c2cnn(-c3c(C(F)(F)F)c(C(F)(F)C(F)(F)F)nn3C)n2)ccc1F [If-1] | 100 | 100 | 100 | 100 | – | efficacy in % ([4]; application rate 100 g/ha): 100%; kill in % [8]: 80%
12 | Cn1nc(C(F)(F)C(F)(F)F)c(C(F)(F)F)c1-n1cc(-c2ccc(F)c(CNC(=O)CC(F)(F)F)c2)cn1 [Ic-5] | 100 | 100 | 100 | 100 | 100 | efficacy in % ([4]; application rate 100 g/ha): 100%; kill in % [8]: 100%
13 | Cn1nc(C(F)(F)C(F)(F)F)c(C(F)(F)F)c1-n1cc(-c2ccc(F)c(CNC(=O)c3cccnc3)c2)cn1 [Ic-15] | – | – | 90 | – | 100 | –
14 | Cn1nc(C(F)(F)C(F)(F)F)c(C(F)(F)F)c1-n1cnc(-c2ccc(F)c(CNC(=O)C3CC3)c2)c1 [Ib-7] | 100 | – | – | – | – | –
15 | CCC(=O)NCc1cccc(-c2ccn(-c3c(C(F)(F)F)c(C(F)(F)C(F)(F)F)nn3C)n2)c1 [Id-5] | 100 | – | – | – | – | –
16 | Cn1nc(C(F)(F)C(F)(F)F)c(C(F)(F)F)c1-n1cc(-c2ccc(F)c(CNC(=O)c3ccccc3)c2)cn1 [Ic-14] | 100 | – | 100 | – | 90 | –
17 | CC(=O)NCc1cccc(-c2cn(-c3c(C(F)(F)F)c(C(F)(F)C(F)(F)F)nn3C)nn2)c1 [Ig-6] | 100 | 100 | 100 | 100 | – | –
18 | CC(NC(=O)C1CC1)c1cccc(-c2cnn(-c3c(C(F)(F)F)c(C(F)(F)C(F)(F)F)nn3C)c2)c1 (racemic) [Ic-21] | 100 | – | – | – | 90 | –
19 | Cn1nc(C(F)(F)C(F)(F)F)c(C(F)(F)F)c1-n1cc(-c2ccc(F)c(CNC(=O)C3CCOC3)c2)cn1 (racemic) [Ic-9] | 100 | 100 | 100 | 100 | 90 | –
20 | Cn1nc(C(F)(F)C(F)(F)F)c(C(F)(F)F)c1-n1ccc(-c2ccc(F)c(CNC(=O)C3CC3)c2)n1 [Id-9] | 100 | – | 90 | – | – | efficacy in % ([4]; application rate 100 g/ha): 83%
21 | CC(=O)NCc1cc(-c2ccn(-c3c(C(F)(F)F)c(C(F)(F)C(F)(F)F)nn3C)n2)ccc1F [Id-4] | 100 | – | – | – | – | –
22 | CCC(=O)NCc1cc(-c2ccn(-c3c(C(F)(F)F)c(C(F)(F)C(F)(F)F)nn3C)n2)ccc1F [Id-2] | 100 | 80 | 90 | 90 | – | efficacy in % ([4]; application rate 100 g/ha): 100%
23 | Cn1nc(C(F)(F)C(F)(F)F)c(C(F)(F)F)c1-n1cc(-c2cccc(CNC(=O)C3CC3)c2)nn1 [Ig-2] | 100 | 100 | 100 | 100 | – | kill in % [8]: 100%

Source: patent US9675070B2 (BAYER CROPSCIENCE AG, priority 2013, dated 2017)
